Assay results from US12624004B2 (Fudan University, priority 2019, dated 2026).
Read-outs that look alike come from different tables or passages of the source.

Tests used:
[1] = test system: Female mice; assay: In vivo hot plate method analgesia test; settings: intraperitoneal; for Maximum percentage effective analgesic (% MPE): Table 1-2, hot plate 55° C.; for Maximum percentage effective analgesic (% MPE) / % MPE (5 mg/kg): 5 mg/kg dose; for Maximum percentage effective analgesia (% MPE): Table 5-2, hot plate 55° C.; for Maximum percentage effective analgesia (% MPE) / % MPE: 10 mg/kg dose; for ED50: Mus musculus, ip, Table 4-2, hot plate; for % MPE (5 mg/kg): Table 2-2, hot plate 55° C.; for % MPE: Table 4-2, hot plate 55° C.
Method: Female mice weighing about 20 g were placed on a hot plate apparatus preheated to 55° C., and the latency of the hindfoot response of the mice was used as the pain threshold indicator. Animals were screened before the experiment, and those with response latency less than 5 s or more than 30 s were excluded. To prevent foot scalding, the maximum observation time was set at 60 s. The basal pain threshold was the average of two measurements, with a 5-min interval between measurements. pain thresholds were measured at 15 m, 30 m, 60 m and 120 m after intraperitoneal injection in each group of mice. The percentage effective analgesia (% MPE) was calculated according to the following formula: percentage effective analgesia (% MPE) (post-dose latency−pre-dose latency)/(60−pre-dose latency)×100%. ED50 values were calculated based on the effective percentage of analgesia using the software Graphpad prism 5.0 software.
(§1) Female mice weighing about 20 g were placed on a hot plate apparatus preheated to 55° C., and the latency of the hindfoot response of the mice was used as the pain threshold indicator. Animals were selected before the experiment, and those with response latency less than 5 s or greater than 30 s were excluded. To prevent foot scalding, the maximum observation time was set at 60 s. The basal pain threshold was the average of two measurements, with a 5-min interval between measurements. pain thresholds were measured at 15 min, 30 min, 60 min and 120 min after intraperitoneal administration in each group of mice. The percentage of analgesic effectiveness (% MPE) was calculated according to the following equation. Percentage of effective analgesia (% MPE)_(Pre-dose incubation period−Incubation period after drug administration)/(60-Pre-dose incubation period)×100%. ED50 values were calculated based on the effective percentage of analgesia using GraphPad prism 5.0 software.
as §1, with “were screened” for “were selected”, “measurements. Pain” for “measurements. pain”, “following formula.” for “following equation. Percentage of effective analgesia (% MPE)_(Pre-dose incubation period−Incubation period after drug administration)/(60-Pre-dose incubation period)×100%. ED50 values were calculated based on the effective percentage of analgesia using GraphPad prism 5.0 software.”
ED50 values were calculated based on the effective percentage of analgesia using Graphpad Prism 5.0.
Female mice weighing about 20 g were placed on a hot plate apparatus preheated to 55° C., and the latency of the hindfoot response of the mice was used as the pain threshold indicator. Animals were screened before the experiment, and those with response latency less than 5 s or more than 30 s were excluded. To prevent foot scalding, the maximum observation time was set at 60 s. The basal pain threshold was the average of two measurements, with a 5-min interval between measurements. pain thresholds were measured at 15 min, 30 min, 60 min and 120 min after intraperitoneal administration in each group of mice. The analgesic effective percentage (% MPE) was calculated according to the following formula: analgesic effective percentage (% MPE)=(latency after drug administration−latency before drug administration)/(60−latency before drug administration)×100%. ED50 values were calculated based on the effective percentage of analgesia using the software Graphpad prism 5.0.
Female mice weighing about 20 g were placed on a hot plate apparatus preheated to 55° C. and the latency of the hindfoot response was used as an indicator of pain threshold. […]

[2] = biological target: T1, μ opioid receptor (Homo sapiens, UniProt P35372); assay: Competition binding assay on membranes of CHO cells expressing μ opioid receptor, [3H]-labeled ligand; settings: read-out: μOR Ki
T1 construct: expressed in transfected cells; host or cells: CHO cells (membranes)
Method: (§2) CHO cells expressing p opioid receptor, δ opioid receptor and κ opioid receptor were cultured in 10 cm^2 culture dishes (F-12 medium+10% neonatal bovine serum) for several days, and the culture fluid was aspirated after the cells had grown to the bottom of the dishes; 3 ml of PBS/EDTA solution (0.1M NaCl, 0.01M NaH2PO4, 0.04% EDTA) was added to digest the cells for 3-5 min. Add ice-cold homogenate (50 mM HEPES PH 7.4, 3 mM MgCl, 1 mM EGTA) to the centrifuge tube, transfer the solution and sediment to a homogenizer and homogenize; then transfer the homogenate to a centrifuge tube and centrifuge at 18000 rpm. Centrifuge for 15 min, two times; the obtained precipitate was homogenized with appropriate amount of 50 mM Tris-HCl, pH 7.4 buffer and divided into centrifuge tubes and stored at −70° C. in the refrigerator until use.
(§3) The total binding tube was spiked with 20-30 μg of the expressed membrane receptor protein and […] ligand (1-2 nM), the corresponding non-specific binding tube was spiked with 1 μM of the corresponding ligand, and the sample tubes were spiked with various screened opioid ligands in a final volume of […], incubated at 30° C. for 30 min, and the reaction was terminated in ice water. […] The samples were filtered under negative pressure through GF/C (whatman) glass fiber filter paper on a Millipore sample collector. The reaction was rinsed three times with 4 ml of 50 mMV Tris-HCl (pH 7.4), the filter paper was dried and placed in 0.5 ml Eppendorf tubes with 0.5 ml of lipophilic scintillation solution, the radioactivity was measured by PERKIN ELMER PRI-CARB 2910 liquid scintillation counter and the inhibition rate was calculated. Inhibition rate (or binding rate)=(total binding rate dpm−sample tube dpm)/(total binding tube dpm−non-specific binding tube dpm)×100%
(§4) IC50 was calculated using Prism 5.0 software. the Ki value was calculated as follows, Ki=IC50/(1+[IL]/Kd), [lL] is the concentration of the added labeled ligand and Kd is the equilibrium dissociation parameter of the labeled ligand.
(§5) CHO cells expressing p opioid receptor, δ opioid receptor and κ opioid receptor were cultured in a 10 cm^2 culture dish (F-12 medium+10% neonatal bovine serum) for several days, and the culture fluid was aspirated after the cells grew to the bottom of the dish. 3 mL PBS/EDTA solution (0.1 M NaCl, 0.01 M NaH2PO4, 0.04% EDTA) was added to digest the cells for 3˜5 min, blew with a pipette to completely dislodge the cells. The cells were collected in a 40 mL centrifuge tube, centrifuged at 5000 rpm for 5 min. The supernatant was removed and the ice-cold homogenate (50 mM HEPES pH 7.4, 3 mM MgCl2, 1 mM EGTA) was added to the centrifuge tube. The solution and the precipitate were transferred to a homogenizer. Then the homogenate was transferred to a centrifuge tube and centrifuged at 18000 rpm for 15 min. The precipitate was centrifuged twice at 18000 rpm for 15 min. The obtained precipitate was homogenized by adding appropriate amount of 50 mM Tris-HCl, pH 7.4 buffer and divided into centrifuge tubes and stored at −70° C. in the refrigerator until use.
(§6) The total binding tube was added with 20-30 μg of expressed membrane receptor protein and [3H]-labeled ligand (1-2 nM). The corresponding non-specific binding tube was added with 1 μM of the corresponding ligand, and the sample tubes were added with various screened opioid ligands in a final volume of 100 μL. All of them were incubated for 30 min at 30° C., and the reaction was terminated in ice water. The samples were filtered under negative pressure through GF/C (Whatman) glass fiber filter paper on a Millipore sample collector. The reaction was rinsed three times with 4 mL of 50 mM Tris-HCl (pH 7.4), the filter paper was dried and placed in 0.5 mL Eppendorf tubes with 0.5 mL of lipophilic scintillation solution. […]

[3] = biological target: T2, δ opioid receptor (Homo sapiens, UniProt P41143); assay: Competition binding assay on membranes of CHO cells expressing δ opioid receptor, [3H]-labeled ligand; settings: for Ki: Table 5-1, read-out: δOR Ki
T2 construct: expressed in transfected cells; host or cells: CHO cells (membranes)
Method: as §2, §3, §4, §5, §6

[4] = biological target: T3, κ opioid receptor (Homo sapiens, UniProt P41145); assay: Competition binding assay on membranes of CHO cells expressing κ opioid receptor, [3H]-labeled ligand
T3 construct: expressed in transfected cells; host or cells: CHO cells (membranes)
Method: as §2, §3, §4, §5, §6

Q: How did the “Maximum percentage effective analgesic (% MPE)” value [1] turn out when COc1cccc(C2(OC(=O)c3ccccc3)CCC(N(C)S(=O)(=O)Cc3ccccc3)CC2CN(C)C)c1.Cl (stereo not drawn) was run?
A: The value was 37.2%.

Q: For COc1cccc(C2(O)CCN(C(=O)Cc3cccc(Br)c3)CC2CN(C)C)c1.Cl (stereo not drawn) [FWBE11, 2-(3-Bromophenyl)-1-(3-((dimethylamino)methyl)-4-hydroxy-4-(3-methoxyphenyl)piperidin-1-yl)ethyl-1-one hydrochloride], which Ki ([2]; Table 5-1) is on record?
A: The Ki was 57.6 ± 0.1 nM.

Q: What about the Ki [3] of the same compound?
A: The Ki was over 10000 nM.

Q: What about the “Maximum percentage effective analgesia (% MPE)” value [1] of the same compound?
A: Its value is 98.31%.

Q: How did the Ki ([2]; Table 4-1) turn out when COc1cccc([C@@]2(O)CCN(C(=O)Cc3cc(F)c(F)cc3F)C[C@@H]2CN(C)C)c1 was run?
A: The Ki was 2310 ± 234 nM.

Q: And the inhibition at 1 µM ([3]; 0.5 h, Table 4-1, 1 μM concentration of compound, read-out: δOR Binding rate (%))?
A: The inhibition at 1 µM was 0%.

Q: What about the inhibition at 1 µM ([4]; 0.5 h, Table 4-1, 1 μM concentration of compound, read-out: κOR Binding rate (%)) of the same compound?
A: Its inhibition at 1 µM is 23.4 ± 3.9%.

Q: How did the “Maximum percentage effective analgesic (% MPE)” value [1] turn out when COc1cccc(C2(O)CCC(S(=O)(=O)Cc3ccccc3)CC2CN(C)C)c1.Cl (stereo not drawn) [4-(Benzylsulfonyl)-2-((dimethylamino)methyl)-1-(3-methoxyphenyl)cyclohexane-1-ol hydrochloride] was run?
A: The value was 21.7%.

Q: With COc1cccc(C2(O)CCN(C(=O)CCc3cccc(C(F)(F)F)c3)CC2CN(C)C)c1.Cl (stereo not drawn) [FWBE10, 1-(3-((Dimethylamino)methyl)-4-hydroxy-4-(3-methoxyphenyl)piperidin-1-yl)-3-(3-(trifluoromethyl)phenyl)propyl-1-one hydrochloride] as the compound, how does the Ki ([2]; Table 5-1) read?
A: The Ki was 219 ± 9.8 nM.

Q: And the Ki [3]?
A: The Ki was over 10000 nM.

Q: What about the “Maximum percentage effective analgesia (% MPE)” value [1] of the same compound?
A: The value was 17.33%.

Q: How did the “Maximum percentage effective analgesic (% MPE)” value [1] turn out when COc1cccc(C2(O)CCC(NS(=O)(=O)Cc3cccc(Cl)c3)CC2CN(C)C)c1.Cl (stereo not drawn) [1-(3-Chlorophenyl)-N-(3-((dimethylamino)methyl)-4-hydroxy-4-(3-methoxyphenyl)cyclohexyl)methanesulfonamide hydrochloride] was run?
A: Its value is 15.2%.

Q: With COc1cccc(C2(OC(=O)c3ccccc3)CCC(NS(=O)(=O)c3cccc(Cl)c3)CC2CN(C)C)c1.Cl (stereo not drawn) [4-((3-Chlorophenyl)sulfonylamino)-2-((dimethylamino)methyl)-1-(3-methoxyphenyl)cyclohexyl benzoate hydrochloride] as the compound, how does the “Maximum percentage effective analgesic (% MPE)” value [1] read?
A: The value was 11.6%.

Q: With COc1cccc([C@]2(O)CCN(S(=O)(=O)Cc3ccccc3)C[C@H]2CN(C)C)c1.Cl [(3R,4S)-1-(Benzylsulfonyl)-3-((dimethylamino)methyl)-4-(3-methoxyphenyl)piperidin-4-ol hydrochloride] as the compound, how does the ED50 [1] read?
A: The ED50 was 0.49 mg/kg.

Q: For COc1cccc(C2(O)CCN(C(=O)Cc3c[nH]c4ccccc34)CC2CN(C)C)c1 (stereo not drawn) [FWBE13, 1-(3-((Dimethylamino)methyl)-4-hydroxy-4-(3-methoxyphenyl)piperidin-1-yl)-2-(1H-indol-3-yl)ethyl-1-one], which Ki ([2]; Table 5-1) is on record?
A: Its Ki is 115 ± 4.1 nM.

Q: What about the Ki ([4]; Table 5-1, read-out: κOR Ki) of the same compound?
A: The Ki was 3100 ± 79.5 nM.

Q: What about the “Maximum percentage effective analgesia (% MPE)” value [1] of the same compound?
A: Its value is 66.95%.

Q: Which “Maximum percentage effective analgesic (% MPE)” value [1] does the source give for COc1cccc(C2(O)CCC(N(Cc3ccccc3)S(=O)(=O)c3ccccc3)CC2CN(C)C)c1.Cl (stereo not drawn) [N-Benzyl-N-(3-((dimethylamino)methyl)-4-hydroxy-4-(3-methoxyphenyl)cyclohexyl)benzenesulfonamide hydrochloride] here?
A: The value was 0%.

Q: How did the “% MPE (5 mg/kg)” value [1] turn out when COc1cccc(C2(OC(F)F)CCN(S(=O)(=O)Cc3ccccc3)CC2CN(C)C)c1.Cl (stereo not drawn) was run?
A: The value was 8.38%.

Q: COc1cccc(C2(O)CCC(NS(=O)(=O)c3ccccc3)CC2CN(C)C)c1.Cl (stereo not drawn) [N-(3-((Dimethylamino)methyl)-4-hydroxy-4-(3-methoxyphenyl)cyclohexyl)benzenesulfonamide hydrochloride] was tested. Which “Maximum percentage effective analgesic (% MPE)” value [1] did it give?
A: Its value is 10.3%.

Q: How did the “% MPE (5 mg/kg)” value [1] turn out when CN(C)CC1CN(S(=O)(=O)Cc2ccccc2)CCC1(O)c1cccc(OC(F)(F)F)c1.Cl (stereo not drawn) was run?
A: The value was 20.2%.

Q: With CN(C)C[C@@H]1CN(C(=O)Cc2cc(F)c(F)cc2F)CC[C@@]1(O)c1cccc(O)c1.Cl as the compound, how does the “% MPE” value [1] read?
A: Its value is 29.7%.

Q: COc1cccc([C@]2(O)CCN(C(=O)Cc3cc(F)c(F)cc3F)CC2CN(C)C)c1.Cl (stereo partly drawn) was tested. Which ED50 [1] did it give?
A: The ED50 was 0.54 mg/kg.

Q: How did the “Maximum percentage effective analgesic (% MPE)” value [1] turn out when COc1cccc(C2(OC(=O)c3ccccc3)CCC(N(C)S(=O)(=O)Cc3cccc(Cl)c3)CC2CN(C)C)c1.Cl (stereo not drawn) was run?
A: Its value is 0%.

Q: Which “Maximum percentage effective analgesic (% MPE)” value [1] does the source give for COc1cccc(C2(O)CCC(N(Cc3ccccc3)S(=O)(=O)c3cccc(Cl)c3)CC2CN(C)C)c1.Cl (stereo not drawn) [N-Benzyl-3-chloro-N-(3-((dimethylamino)methyl)-4-hydroxy-4-(3-methoxyphenyl)cyclohexyl)benzenesulfonamide hydrochloride] here?
A: Its value is 6%.

Q: How did the “Maximum percentage effective analgesic (% MPE)” value [1] turn out when COc1cccc(C2(O)CCC(NS(=O)(=O)c3cccc(Cl)c3)CC2CN(C)C)c1.Cl (stereo not drawn) [3-Chloro-N-(3-((dimethylamino)methyl)-4-hydroxy-4-(3-methoxyphenyl)cyclohexyl)benzenesulfonamide hydrochloride] was run?
A: Its value is 11.7%.

Q: For COc1cccc([C@@]2(O)CCN(C(=O)Cc3cc(F)c(F)cc3F)C[C@@H]2CN(C)C)c1.Cl, which “% MPE” value [1] is on record?
A: The value was 10.5%.
